Data from patent publication US20230041738A1, “1H-PYRAZOLO[4,3-d]PYRIMIDINE COMPOUNDS AS TOLL-LIKE RECEPTOR 7 (TLR7) AGONISTS” (BRISTOL-MYERS SQUIBB COMPANY, priority 2020, published 2023).

How the values were obtained:
human TLR7 = biological target: T1, human TLR7 (Homo sapiens, UniProt Q9NYK1); assay: Human TLR7 agonist activity assay (hTLR7 reporter, HEK-Blue TLR7 cells, SEAP); assay type: cell-based; conditions: HEK-Blue TLR7 cells with SEAP reporter, 18 h treatment; average where assay performed multiple times
T1 construct: host or cells: HEK-Blue TLR7 cells (engineered human embryonic kidney cells)
T1 sequence (Q9NYK1 27-1049): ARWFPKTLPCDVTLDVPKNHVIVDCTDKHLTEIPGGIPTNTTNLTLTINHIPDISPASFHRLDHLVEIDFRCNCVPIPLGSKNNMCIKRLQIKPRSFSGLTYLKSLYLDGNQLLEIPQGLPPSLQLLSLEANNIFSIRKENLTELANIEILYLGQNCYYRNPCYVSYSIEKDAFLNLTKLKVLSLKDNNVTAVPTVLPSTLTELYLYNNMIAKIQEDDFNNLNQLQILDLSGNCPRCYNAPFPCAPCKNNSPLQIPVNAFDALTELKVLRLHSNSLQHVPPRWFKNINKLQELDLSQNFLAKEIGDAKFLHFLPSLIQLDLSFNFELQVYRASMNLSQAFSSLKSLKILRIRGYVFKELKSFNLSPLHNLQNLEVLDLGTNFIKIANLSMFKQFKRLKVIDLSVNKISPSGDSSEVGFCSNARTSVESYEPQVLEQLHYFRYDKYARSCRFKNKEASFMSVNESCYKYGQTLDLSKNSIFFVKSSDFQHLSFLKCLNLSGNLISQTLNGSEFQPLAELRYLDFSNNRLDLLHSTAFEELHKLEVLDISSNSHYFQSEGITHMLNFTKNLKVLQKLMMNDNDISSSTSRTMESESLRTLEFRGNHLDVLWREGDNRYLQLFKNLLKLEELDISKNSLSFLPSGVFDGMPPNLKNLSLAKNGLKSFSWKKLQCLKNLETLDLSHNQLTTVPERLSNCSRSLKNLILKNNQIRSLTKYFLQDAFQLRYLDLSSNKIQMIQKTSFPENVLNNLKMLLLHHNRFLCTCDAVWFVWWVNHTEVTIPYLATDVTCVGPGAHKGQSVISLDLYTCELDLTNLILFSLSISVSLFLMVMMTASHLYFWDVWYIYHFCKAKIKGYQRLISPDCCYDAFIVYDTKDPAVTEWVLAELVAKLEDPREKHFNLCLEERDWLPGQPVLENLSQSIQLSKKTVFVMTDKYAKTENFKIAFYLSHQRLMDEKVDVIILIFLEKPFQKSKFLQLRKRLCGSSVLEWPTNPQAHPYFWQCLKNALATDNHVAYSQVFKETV
Procedure: This procedure describes a method for assaying human TLR7 (hTLR7) agonist activity of the compounds disclosed in this specification.
HEK-Blue™ TLR7 cells were added to each well of a 384-well tissue-culture plate (15,000 cells per well) and incubated 16-18 h at 37° C., 5% CO2. Compounds (100 nl) were dispensed into wells containing the HEK-Blue™ TLR cells and the treated cells were incubated at 37° C., 5% CO2. After 18 h treatment ten microliters of freshly-prepared Quanti-Blue™ reagent (Invivogen) was added to each well, incubated for 30 min (37° C., 5% CO2) and SEAP levels measured using an Envision plate reader (OD=620 nm). The half maximal effective concentration values (EC50; compound concentration which induced a response halfway between the assay baseline and maximum) were calculated.

CD69 = assay: Induction of CD69 in human whole blood (hWB); assay type: cell-based; conditions: 17 hrs at 37 C, CD69 surface staining, 100% set to 1 uM resiquimod, average where performed multiple times
Procedure: The induction of Type I interferon (IFN) MX-1 genes and the B-cell activation marker CD69 are downstream events that occur upon activation of the TLR7 pathway. The following is a human whole blood assay that measures their induction in response to a TLR7 agonist.
Heparinized human whole blood was harvested from human subjects and treated with test TLR7 agonist compounds at 1 mM. The blood was diluted with RPMI 1640 media and Echo was used to predot 10 nL per well giving a final concentration of 1 uM (10 nL in 10 uL of blood). After mixing on a shaker for 30 sec, the plates were covered and placed in a 37° C. chamber for o/n=17 hrs. Fixing/lysis buffer was prepared (5×→1× in H2O, warm at 37° C.; Cat #BD 558049) and kept the perm buffer (on ice) for later use.
For surface markers staining (CD69): prepared surface Abs: 0.045 ul hCD14-FITC (ThermoFisher Cat #MHCD1401)+0.6 ul hCD19-ef450 (ThermoFisher Cat #48-0198-42)+1.5 ul hCD69-PE (cat #BD555531)+0.855 ul FACS buffer. Added 3 ul/well, spin1000 rpm for 1 min and mixed on shaker for 30 sec, put on ice for 30 mins. Stop stimulation after 30 min with 70 uL of prewarmed 1× fix/lysis buffer and use Feliex mate to resuspend (15 times, change tips for each plate) and incubate at 37C for 10 min.
Centrifuge at 2000 rpm for 5 min aspirate with HCS plate washer, mix on shaker for 30 sec and then wash with 70 uL in dPBS and pelleted 2× s (2000 rpm for 5 min) and 50 ul wash in FACS buffer pelleted 1×s(2000 rpm for 5 min). Mix on shaker for 30 sec. For Intracellular markers staining (MX-1): Add 50 ul of BD Perm buffer III and mix on shaker for 30 sec. Incubate on ice for 30 min (in the dark). Wash with 50 uL of FACS buffer 2× (spin @2300 rpm×5 min after perm) followed by mixing on shaker for 30 sec. Resuspended in 20 ul of FACS buffer containing MX1 antibody ( )(4812)-Alexa 647: Novus Biologicals #NBP2-43704AF647) 20 ul FACS bf+0.8 ul hlgG+0.04 ul MX-1. Spin 1000 rpm for 1 min, mix on shaker for 30se and the samples were incubated at RT in the dark for 45 min followed by washing 2× FACS buffer (spin @2300 rpm×5 min after perm). Resuspend 20 ul (35 uL total per well) of FACS buffer and cover with foil and place in 4° C. to read the following day. Plates were read on iQuePlus. The results were loaded into toolset and IC50 curves are generated in curve master. The y-axis 100% is set to 1 uM of resiquimod.

EC50 (human TLR7)	EC50 (CD69)	SMILES
30.5 nM	151 nM	COc1cc(CN2C[C@@H]3C[C@H]2CN3)ccc1Cn1ncc2nc(N)nc(NCC3CC(C4CC4)C3)c21 (stereo partly drawn) [Compound 112, N7-[(3-cyclopropylcyclobutyl)-methyl]-1-[(4-{[(1S,4S)-2,5-diazabicyclo[2.2.1]heptan-2-yl]methyl}-2-methoxy-phenyl)methyl]-1H-pyrazolo[4,3-d]pyrimidine-5,7-diamine]
22.2 nM	43.2 nM	COc1cc(CN2C[C@H]3CNC[C@H]3C2)ccc1Cn1ncc2nc(N)nc(NCC3CC(C4CC4)C3)c21 (stereo partly drawn) [Compound 113, 1-[(4-{[(3aR,6aS)-octahydro-pyrrolo[3,4-c]pyrrol-2-yl]methyl}-2-methoxyphenyl)methyl]-N7-[(3-cyclopropylcyclobutyl)methyl]-1H-pyrazolo[4,3-d]pyrimidine-5,7-diamine]
120 nM	15.4 nM	CCCCNc1nc(N)nc2c(C)nn(Cc3ccc(C(=O)N4C[C@H]5C[C@@H]4CN5C)cc3OC)c12 [Compound 114, N7-butyl-1-({2-methoxy-4-[(1R,4R)-5-methyl-2,5-diazabicyclo-[2.2.1]heptane-2-carbonyl]phenyl}-methyl)-3-methyl-1H-pyrazolo[4,3-d]pyrimidine-5,7-diamine]
79.8 nM	10.9 nM	CCCCNc1nc(N)nc2c(C)nn(Cc3ccc(C(=O)N4C[C@H]5CN(C)C[C@H]5C4)cc3OC)c12 [Compound 115, 1-({4-[(3aR,6aS)-5-methyl-octahydropyrrolo[3,4-c]pyrrole-2-carbonyl]-2-methoxyphenyl}methyl)-N7-butyl-3-methyl-1H-pyrazolo[4,3-d]pyrimidine-5,7-diamine]
172 nM	14.2 nM	CCCCNc1nc(N)nc2cnn(Cc3ccc(C(=O)N4C[C@H]5CN(C)C[C@H]5C4)cc3OC(F)F)c12 [Compound 116, 1-({4-[(3aR,6aS)-5-methyl-octa-hydropyrrolo[3,4-c]pyrrole-2-carbonyl]-2-(difluoromethoxy)phenyl}-methyl)-N7-butyl-1H-pyrazolo[4,3-d]pyrimidine-5,7-diamine]
92.4 nM	16.2 nM	CCCCNc1nc(N)nc2cnn(Cc3ccc(CN4C[C@H]5CN(C)C[C@H]5C4)cc3OC(F)F)c12 [Compound 117, 1-[(4-{[(3aR,6aS)-5-methyl-octa-hdropyrrolo[3,4-c]pyrrol-2-yl]methyl}-2-(difluoromethoxy)phenyl)-methyl]-N7-butyl-1H-pyrazolo[4,3-d]pyrimidine-5,7-diamine]
339 nM	51.8 nM	CCCCNc1nc(N)nc2cnn(Cc3ccc(C(=O)N4C[C@H]5CN(C)C[C@H]5C4)cc3OC3CC3)c12 [Compound 118, 1-({4-[(3aR,6aS)-5-methyl-octa-hydropyrrolo[3,4-c]pyrrole-2-carbonyl]-2-cyclopropoxyphenyl}-methyl)-N7-butyl-1H-pyrazolo[4,3-d]pyrimidine-5,7-diamine]
106 nM	18.1 nM	CCC[C@@H](CCO)Nc1nc(N)nc2cnn(Cc3ccc(C(=O)N4C[C@H]5C[C@@H]4CN5C)cc3OC)c12 [Compound 119, (3S)-3-{[5-amino-1-({2-methoxy-4-[(1R,4R)-5-methyl-2,5-diazabicyclo [2.2.1]heptane-2-carbonyl]phenyl}methyl)-1H-pyrazolo[4,3-d]pyrimidin-7-yl]amino}hexan-1-ol]
173 nM	138 nM	CCC[C@@H](CCO)Nc1nc(N)nc2cnn(Cc3ccc(C(=O)N4C[C@H]5CNC[C@H]5C4)cc3OC)c12 [Compound 120]
22.1 nM	1.3 nM	CCC[C@@H](CCO)Nc1nc(N)nc2cnn(Cc3ccc(CN4C[C@H]5C[C@@H]4CN5C)cc3OC)c12 [Compound 121, (3S)-3-({5-amino-1-[(2-methoxy-4-{[(1R,4R)-5-methyl-2,5-diaza-bicyclo[2.2.1]heptan-2-yl]methyl}-phenyl)methyl]-1H-pyrazolo[4,3-d]pyrimidin-7-yl}amino)hexan-1-ol]
7.2 nM	0.7 nM	CCC[C@@H](CCO)Nc1nc(N)nc2cnn(Cc3ccc(CN4C[C@H]5CN(C)C[C@H]5C4)cc3OC)c12 [Compound 122, (3S)-3-({1-[(4-{[(3aR,6aS)-5-methyl-octahydropyrrolo[3,4-c]pyrrol-2-yl]methyl}-2-methoxyphenyl)methyl]-5-amino-1H-pyrazolo[4,3-d]pyrimidin-7-yl}amino)hexan-1-ol]
2240 nM	482 nM	CCCCNc1nc(N)nc2cnn(Cc3ccc(C(=O)N4C[C@H]5CNC[C@H]5C4)cc3OC(F)F)c12 [Compound 123, 1-({4-[(3aR,6aS)-octahydro-pyrrolo[3,4-c]pyrrole-2-carbonyl]-2-(difluoromethoxy)phenyl}methyl)-N7-butyl-1H-pyrazolo[4,3-d]pyrimidine-5,7-diamine]
682 nM	16.7 nM	COc1cc(CN2C[C@@H]3C[C@H]2CO3)ccc1Cn1ncc2nc(N)nc(NCc3cc(C)on3)c21 [Compound 127, 1-[(2-methoxy-4-{[(1S,4S)-2-oxa-5-azabicyclo[2.2.1]heptan-5-yl]methyl}phenyl)methyl]-N7-[(5-methyl-1,2-oxazol-3-yl)methyl]-1H-pyrazolo[4,3-d]pyrimidine-5,7-diamine]
74.4 nM	28 nM	COc1cc(CN2C[C@H]3C[C@@H]2CN3C)ccc1Cn1nc(C)c2nc(N)nc(NCc3cc(C)on3)c21 [Compound 128, 1-[(2-methoxy-4-{[(1R,4R)-5-methyl-2,5-diazabicyclo[2.2.1]-heptan-2-yl]methyl}phenyl)-methyl]-3-methyl-N7-[(5-methyl-1,2-oxazol-3-yl)methyl]-1H-pyra-zolo[4,3-d]pyrimidine-5,7-diamine]
323 nM	804 nM	COc1cc(CN2C[C@@H]3C[C@H]2CN3)ccc1Cn1ncc2nc(N)nc(NCc3noc(C)n3)c21 [Compound 129, 1-[(4-{[(1S,4S)-2,5-diaza-bicyclo[2.2.1]heptan-2-yl]methyl}-2-methoxyphenyl)methyl]-N7-[(5-methyl-1,2,4-oxadiazol-3-yl)methyl]-1H-pyrazolo[4,3-d]pyri-midine-5,7-diamine]
